From US6960594B2, “Thiophene and furan 2,5-dicarboxamides useful in the treatment of cancer” (Shire BioChem Inc., priority 1998, dated 2005)
Structures can show the parent of a compound that is named as a salt. Where two headings read alike, the source gives them in different places.

Key:
[1] = tested on: Human non small-cell lung cancer cell line H460; experiment: Inhibition of metastasis in angiomouse/metamouse human lung cancer model of H460; type: in vivo, athymic BALB/c nude mice; conditions: Group B, 10 mg/kg SC 3 times/week
Description: Male and female athymic BALB/c nude mice between 4 and 5 weeks of age were used. The animals were bred and maintained in an HEPA-filtered environment with cages, food and bedding sterilized by autoclaving. The breeding pairs were obtained from the Charles River Laboratories (Wilmington, Mass.). The animal diets were obtained from Harlan Teklab (Madison, Wis.). Ampicillin (Sigma, St Louis, Mo.) 5.0% (v/v) was added to the autoclaved drinking water.
Compound VII was tested and AGM-1470 (chloroacetyl-(3R,4S,5S,6R)-5-methoxy-4-[(2R,3R)-2-methyl-3-(3-methyl-2-butenyl)oxiranyl]-1-oxaspiro[2.5]oct-6-yl ester carbamic acid) was used as a positive control. [drawing 51] The compounds were dissolved using PEG400 with heating and sonicatin. The solutions were then diluted with saline to obtain the desired concentrations (30%/70%) and stored at −20° C.
Human non small-cell lung cancer cell line H460 with expression of green fluorescent protein was obtained from the National Cancer Institute. The cells were transfected with vectors carrying the green fluorescent protein (GFP) gene. The cell line was propagated by subcutaneous implantation in nude mice.
Test animals were transplanted by surgical orthotopic implantation (SOI) using fragments harvested from subcutaneaous tumor stock animals. The animals were anesthetized with isoflurane and the surgical area was sterilized using iodine solution and alcohol. A left thoracotomy was made along the 4th intercostal space using a pair of scissors. Two pieces of H460 tumor tissue of one cubic millimiter each were sutured to the left lung using an 8-0 nylon surgical suture. The thorax was closed using a sterile 6-0 silk suture. A sterile 3-cc syringe with a 25-gauge needle was used to remove the air and inflate the lung. All surgical and animal manipulations and procedures were conducted under HEPA-filtered laminar flow hoods.
Extra numbers of mice were transplanted to compensate for postsurgical losses. The orthotopically transplanted animals used were selected to establish groups of similar mean body weight. Groups for each of the cohort conditions wre randomly chosen. The cohort was grouped as follows. A total of 10 mice were used for each dosage regimen. Administration of test compounds and vehicle by subcutaneous injection was begun three days after the orthotopic implantation.
Two animals for each treatment group were sacrificed at day-14 after orthotopic implantation of H460. The remaining animals for each group were sacrificed at day-28 after implantation. The sacrificed animals were evaluated for primary and secondary tumors. Gross examination for distant metastasis was conducted at necropsy. Tissue samples of the primary tumor and those from relevant organs such as the lung, the liver and the lymph nodes wre processed through standards procedures of hematoxylin and eosin staining for subsequent microscopic examination.
The mediastinal lymph nodes, the liver and the lung in each animal were collected. The sampled tissues were sectioned and stained, then microscopically examined. The fisher-exact test was performed to compare distant metastasis to these organs in the treated and the controls. […]

HT29 = experiment: Cell proliferation and cytotoxicity MTT assay, HT29; type: cell-based; conditions: Homo sapiens, HT-29, 72 hours culture
Description: (§1) The wells of microtiter plates were seeded with 2000 cells/well T24, 2500 cells/well HT29 or 5000 cells/well HMVEC (Cell Systems) in 100 uL, followed by an overnight culture for cell adhesion. The next day, the media is supplemented with 100 uL of 10-fold dilution of compound of interest starting at 10 uM. Following culture for 72 hours, 3-(4,5-dimethyl-2-thiazolyl)-2,5-diphenyltetrazolium bromide (MTT; Sigma) at 2 mg/mL was added to each well (50 uL/well) and further incubated for 4 hours at 37° C. The medium was flicked out and 200 uL of a 1:1 solution of ethanol:acetone followed by 25 uL of glycine buffer (0.1 M glycine, 0.1M NaCl, pH 10.5) is added and the color measured by the absorbance at 570 nm.

[2] = tested on: Chick chorioallantoic membrane (CAM) capillary formation driven by VPF/VEGF165; experiment: Chick chorioallantoic membrane (CAM) mesh assay; type: in vivo, chicken; conditions: significant if >25%
Description: Fertilized white leghorn chicken eggs (SPAFAS Inc., Norwich, Conn.) were received at day 0 and incubated for 3 days at 37 C with constant humidity. On day 3, eggs were rinsed with 70% ethanol and opened into 100 mm^2 tissue culture coated Petri dishes under aseptic conditions. The embryos were then returned to a humidified 38 C incubator for 7-9 additional days.
Vitrogen (Collagen Biomaterials, Palo Alto, Calif.) at a final concentration of 0.73 mg/mL and Matrigel (Becton Dickinson, Bedford, Mass.) at a final concentration of 10 mg/mL was directly pipetted onto Nylon meshes with 250 μm^2 openings which were cut into 4 mm×4 mm squares and autoclaved. Polymerization of meshes were under aseptic conditions, on bacteriological Petri dishes. The polymerization conditions for each substrate were identical; after mixing with or without 250 μg of VPF/VEGF165 (Peprotech, Rocky Hill, N.J.) and/or compounds of interest, 40 μL were pipetted onto each mesh in a bacteriological Petri dish. The Petri dish was placed in a humidified 37 C incubator with 5% CO2 for 30 minutes to allow polymerization followed by an incubation at 4° C. for 2 hours.
In a tissue culture enclosure, meshes were placed onto the periphery of the CAM of a day 12-14 embryo, excluding areas containing major vessels. The embryos were then returned to the humidified 38° C. incubator with 3% CO2 for 24 to 48 additional hours.
Embryos were removed from the incubator and meshes were viewed under a dissecting microscope for gross evaluation. Injection of 400 μL FITC dextran, MW 2,000,000 (Sigma, St. Louis, Mo.) through glass microcapillary tubes by infusion into the umbilical vein was performed at a rate of 200 μl per minute. The FITC dextran was allowed to circulate for 5 minutes and 3.7% formaldehyde in PBS was applied directly on each mesh. The embryos were then incubated at 40° C. for 5 minutes and the meshes were dissected off the CAM and fixed in 3.7% formaldehyde for 10 minutes to overnight.
After fixation, meshes were mounted on slides with 90% glycerol in PBS and visualized on an inverted fluorescence microscope. A Nikon Diaphot with a Sony DXC-151A camera attached to the side port was used for capture of images and analysis was with the NIH Image 1.61 software program. For each mesh, 5 random staggered images (approximately 600 μm each) were captured. The areas of high intensity were highlighted and measured. Results are expressed as ability to suppress capillary formation after subtraction from negative control. Values were calculated as a inhibition, considering 100% the capillary density achieved by VPF in the presence of vitrogen alone minus the bakground levels in the absence of VPF. Negative values indicated angiogenic stimulation above the VPF positive control.

GP IIb-IIIa (αIIbβ3) = target: T1, GP IIb-IIIa (αIIbβ3) (Homo sapiens, UniProt P05106+P08514); experiment: Fibrinogen binding to immobilized GP IIb-IIIa (αIIbβ3)
T1 construct: purchased Calbiochem
T1 sequence (P08514 32-887 limits assumed): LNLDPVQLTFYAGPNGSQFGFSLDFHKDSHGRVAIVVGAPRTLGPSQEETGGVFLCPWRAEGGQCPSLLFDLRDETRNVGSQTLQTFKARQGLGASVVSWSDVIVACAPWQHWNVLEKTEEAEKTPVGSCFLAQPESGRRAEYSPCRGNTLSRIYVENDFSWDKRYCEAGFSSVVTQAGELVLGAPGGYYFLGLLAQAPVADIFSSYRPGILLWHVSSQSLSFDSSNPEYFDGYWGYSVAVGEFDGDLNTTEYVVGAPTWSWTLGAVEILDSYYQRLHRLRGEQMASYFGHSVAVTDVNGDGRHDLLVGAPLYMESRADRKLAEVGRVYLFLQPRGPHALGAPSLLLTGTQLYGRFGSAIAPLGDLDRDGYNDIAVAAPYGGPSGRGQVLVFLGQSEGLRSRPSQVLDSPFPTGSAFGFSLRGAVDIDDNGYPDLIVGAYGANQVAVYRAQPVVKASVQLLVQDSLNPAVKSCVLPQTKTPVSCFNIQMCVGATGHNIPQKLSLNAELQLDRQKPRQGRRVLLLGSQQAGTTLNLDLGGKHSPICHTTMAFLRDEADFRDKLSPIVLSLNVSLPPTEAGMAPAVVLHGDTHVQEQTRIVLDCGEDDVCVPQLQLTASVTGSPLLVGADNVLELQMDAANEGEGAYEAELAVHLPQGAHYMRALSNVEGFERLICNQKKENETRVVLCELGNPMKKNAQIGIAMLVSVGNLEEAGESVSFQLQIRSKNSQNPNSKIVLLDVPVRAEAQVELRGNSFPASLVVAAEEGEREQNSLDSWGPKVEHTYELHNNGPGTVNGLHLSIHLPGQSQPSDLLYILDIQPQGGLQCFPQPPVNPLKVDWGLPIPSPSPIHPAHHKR
T1 sequence (P08514 891-1039 partner limits assumed): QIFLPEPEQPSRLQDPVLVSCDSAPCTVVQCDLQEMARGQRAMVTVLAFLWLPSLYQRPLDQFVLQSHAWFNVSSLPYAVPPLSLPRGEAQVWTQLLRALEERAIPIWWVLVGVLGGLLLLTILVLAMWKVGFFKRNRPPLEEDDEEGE
T1 sequence (P05106 27-788): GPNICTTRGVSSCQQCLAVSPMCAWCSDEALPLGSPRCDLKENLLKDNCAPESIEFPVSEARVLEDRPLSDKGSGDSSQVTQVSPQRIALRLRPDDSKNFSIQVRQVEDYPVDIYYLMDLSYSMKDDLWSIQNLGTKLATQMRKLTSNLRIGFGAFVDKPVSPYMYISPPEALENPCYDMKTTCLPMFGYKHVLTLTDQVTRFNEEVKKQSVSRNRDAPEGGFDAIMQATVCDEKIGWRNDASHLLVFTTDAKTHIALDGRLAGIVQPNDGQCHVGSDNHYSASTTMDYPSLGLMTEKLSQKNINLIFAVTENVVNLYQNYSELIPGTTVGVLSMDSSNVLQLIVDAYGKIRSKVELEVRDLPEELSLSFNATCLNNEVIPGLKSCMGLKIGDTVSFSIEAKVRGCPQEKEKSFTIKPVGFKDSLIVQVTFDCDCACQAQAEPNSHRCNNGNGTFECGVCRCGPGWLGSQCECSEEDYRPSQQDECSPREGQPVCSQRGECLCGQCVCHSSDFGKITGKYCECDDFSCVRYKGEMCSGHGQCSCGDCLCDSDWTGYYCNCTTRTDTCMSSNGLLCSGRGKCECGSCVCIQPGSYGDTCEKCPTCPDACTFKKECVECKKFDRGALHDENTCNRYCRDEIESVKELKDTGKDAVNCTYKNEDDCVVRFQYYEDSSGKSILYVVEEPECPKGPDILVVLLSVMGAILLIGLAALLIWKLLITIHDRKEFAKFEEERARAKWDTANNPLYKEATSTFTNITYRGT
Description: (§2) The wells of plastic microtiter plates were coated overnight at 4° C. with purified active αIIbβ3 (Calbiochem) or placental αvβ3 at 0.5 ug/mL (100 uL/well) in a buffer containing 150 mM NaCl, 20 mM Tris, pH 7.4, 1 mM MgCl2, 0.2 mM MnCl2, and including 1 mM CaCl2 for αIIbβ3. Blocking of nonspecific sites was achieved by incubating the wells with 35 mg/mL bovine serum albumin (BSA) for at least 2 hours at 37° C. Biotinylated-fibrinogen (10 nM) was added in 0.2 mL binding buffer (100 mM NaCl, 50 mM Tris, pH 7.4, 1 mM MgCl2, 0.2 mM MnCl2 and 1 mg/mL BSA including 1 mM CaCl2 for αIIbβ3) to the wells in triplicate in the absence or presence of increasing concentrations of compounds of interest (0.001-100 uM) and further incubated for 2 hours at 37° C. Nonbound fibrinogen was removed by five washes with binding buffer. Avidin conjugated to alkaline phosphatase (Sigma), diluted in binding buffer, was added and incubated for two hours at 37° C. The plates were washed five times with binding buffer, and after addition of the substrate PNPP (Pierce), the enzyme activity was measured by the absorbance at 405 nm.

placental αvβ3 = target: T2, placental αvβ3 (Homo sapiens, UniProt P05106+P06756); experiment: Fibrinogen binding to immobilized αvβ3
T2 construct: placental αvβ3 at 0.5 ug/mL; from tissue; host or cells: placenta
T2 sequence (P06756 31-889 limits assumed): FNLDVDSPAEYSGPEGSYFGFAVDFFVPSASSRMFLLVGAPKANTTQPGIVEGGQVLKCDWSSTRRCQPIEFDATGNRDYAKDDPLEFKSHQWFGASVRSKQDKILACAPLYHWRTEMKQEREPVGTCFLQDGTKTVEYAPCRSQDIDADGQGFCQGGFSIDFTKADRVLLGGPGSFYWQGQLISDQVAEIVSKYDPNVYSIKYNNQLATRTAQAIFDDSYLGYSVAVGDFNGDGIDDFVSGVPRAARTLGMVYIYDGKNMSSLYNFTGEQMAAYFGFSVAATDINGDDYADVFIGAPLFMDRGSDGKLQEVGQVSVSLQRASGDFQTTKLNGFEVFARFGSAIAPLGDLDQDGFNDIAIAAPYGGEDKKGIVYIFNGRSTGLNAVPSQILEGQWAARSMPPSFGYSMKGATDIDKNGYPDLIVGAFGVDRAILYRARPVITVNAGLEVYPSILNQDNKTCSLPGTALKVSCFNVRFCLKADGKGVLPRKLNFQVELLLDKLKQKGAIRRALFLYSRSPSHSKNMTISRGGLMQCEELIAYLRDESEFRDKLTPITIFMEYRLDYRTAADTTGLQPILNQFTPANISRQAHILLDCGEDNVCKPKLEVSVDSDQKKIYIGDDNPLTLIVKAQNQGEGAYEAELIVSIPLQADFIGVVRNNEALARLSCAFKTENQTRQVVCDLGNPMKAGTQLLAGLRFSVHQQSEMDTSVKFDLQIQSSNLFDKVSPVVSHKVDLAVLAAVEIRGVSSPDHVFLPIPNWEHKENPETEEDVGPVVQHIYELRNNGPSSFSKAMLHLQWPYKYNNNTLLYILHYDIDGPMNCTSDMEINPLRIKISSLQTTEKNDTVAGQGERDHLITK
T2 sequence (P06756 891-1048 partner limits assumed): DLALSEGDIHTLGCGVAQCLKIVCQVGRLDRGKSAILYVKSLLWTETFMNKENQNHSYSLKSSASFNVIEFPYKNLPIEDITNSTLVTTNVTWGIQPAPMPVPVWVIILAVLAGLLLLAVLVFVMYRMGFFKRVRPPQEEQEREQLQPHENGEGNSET
T2 sequence (P05106 27-788): as the sequence (P05106 27-788) above
Description: as §2

HMVEC = experiment: Cell proliferation and cytotoxicity MTT assay, HMVEC; type: cell-based; conditions: HMVEC, 72 hours culture
Description: as §1

αvβ5 = target: T3, αvβ5 (Homo sapiens, UniProt P06756+P18084); experiment: Cell adhesion assay, HT29 on vitronectin; type: cell-based
T3 construct: Cells HT29, K562, or K562 transfected with αvβ3; endogenous in cells; host or cells: HT29
Description: (§3) The wells of 96-well plates (Immunolon) were coated, by incubation overnight at 4° C., with 5 ug/mL vitronectin, 2 ug/mL osteopontin, or fibronectin or 10 mg/mL BSA in PBS. The protein solution was flicked out and the wells were blocked with 10 mg/mL BSA (0.1 mL) for 1-2 hours at 37° C. […] Cells were lifted with trypsin-EDTA and washed two times with Hank's balanced salt solution minus cations (Sigma) supplemented with 1 mM MgCl2 Cells (75,000 cells/well) were added to coated plates in triplicate and allowed to attach at 37° C. for 1 hour in the presence or absence of specific antibodies (5 ug/mL) or 10-fold dilutions of compounds of interest starting at 10 uM. Nonadherent cells were removed by gentle washing twice with PBS. The adherent cells were solubilized with 1% triton x-100 and detected using a fluorescence plate reader (DYNEX Technologies). The number of attached cells was calculated based upon standard curves for each cell line used in the experiment.

α5β1 = target: T4, α5β1 (Homo sapiens, UniProt P05556+P08648); experiment: Cell adhesion assay, K562 on fibronectin; type: cell-based; conditions: K562 cells, adhesion to fibronectin, 1 hour
T4 construct: Cells HT29, K562, or K562 transfected with αvβ3; endogenous in cells; host or cells: K562
T4 sequence (P08648 42-894 limits assumed): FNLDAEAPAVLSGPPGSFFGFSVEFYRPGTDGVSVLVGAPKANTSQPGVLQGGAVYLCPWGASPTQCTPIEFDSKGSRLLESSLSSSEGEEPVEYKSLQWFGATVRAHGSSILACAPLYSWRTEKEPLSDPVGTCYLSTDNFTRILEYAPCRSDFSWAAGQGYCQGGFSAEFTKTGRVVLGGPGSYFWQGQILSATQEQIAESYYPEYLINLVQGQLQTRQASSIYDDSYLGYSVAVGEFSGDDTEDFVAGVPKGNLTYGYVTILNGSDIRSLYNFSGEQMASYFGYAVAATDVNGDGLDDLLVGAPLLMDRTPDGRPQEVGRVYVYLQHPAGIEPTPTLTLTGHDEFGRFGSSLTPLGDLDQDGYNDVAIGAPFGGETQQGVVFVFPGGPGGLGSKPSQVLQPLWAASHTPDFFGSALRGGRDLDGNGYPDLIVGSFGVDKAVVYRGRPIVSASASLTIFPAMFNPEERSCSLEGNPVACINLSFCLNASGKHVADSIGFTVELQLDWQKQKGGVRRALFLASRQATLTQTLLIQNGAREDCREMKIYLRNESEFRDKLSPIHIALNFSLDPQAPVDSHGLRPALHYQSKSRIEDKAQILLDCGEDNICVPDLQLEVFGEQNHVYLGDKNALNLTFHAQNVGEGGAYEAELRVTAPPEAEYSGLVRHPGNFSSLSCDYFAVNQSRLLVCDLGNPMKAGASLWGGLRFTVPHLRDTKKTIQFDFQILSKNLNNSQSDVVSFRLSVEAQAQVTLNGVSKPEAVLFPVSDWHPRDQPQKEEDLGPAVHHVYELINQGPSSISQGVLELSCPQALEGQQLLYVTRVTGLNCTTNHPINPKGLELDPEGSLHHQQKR
T4 sequence (P08648 895-1049 partner limits assumed): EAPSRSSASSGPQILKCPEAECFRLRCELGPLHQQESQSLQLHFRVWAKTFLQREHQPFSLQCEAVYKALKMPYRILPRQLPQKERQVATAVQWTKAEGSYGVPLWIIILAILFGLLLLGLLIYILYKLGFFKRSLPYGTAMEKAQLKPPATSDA
T4 sequence (P05556 21-798): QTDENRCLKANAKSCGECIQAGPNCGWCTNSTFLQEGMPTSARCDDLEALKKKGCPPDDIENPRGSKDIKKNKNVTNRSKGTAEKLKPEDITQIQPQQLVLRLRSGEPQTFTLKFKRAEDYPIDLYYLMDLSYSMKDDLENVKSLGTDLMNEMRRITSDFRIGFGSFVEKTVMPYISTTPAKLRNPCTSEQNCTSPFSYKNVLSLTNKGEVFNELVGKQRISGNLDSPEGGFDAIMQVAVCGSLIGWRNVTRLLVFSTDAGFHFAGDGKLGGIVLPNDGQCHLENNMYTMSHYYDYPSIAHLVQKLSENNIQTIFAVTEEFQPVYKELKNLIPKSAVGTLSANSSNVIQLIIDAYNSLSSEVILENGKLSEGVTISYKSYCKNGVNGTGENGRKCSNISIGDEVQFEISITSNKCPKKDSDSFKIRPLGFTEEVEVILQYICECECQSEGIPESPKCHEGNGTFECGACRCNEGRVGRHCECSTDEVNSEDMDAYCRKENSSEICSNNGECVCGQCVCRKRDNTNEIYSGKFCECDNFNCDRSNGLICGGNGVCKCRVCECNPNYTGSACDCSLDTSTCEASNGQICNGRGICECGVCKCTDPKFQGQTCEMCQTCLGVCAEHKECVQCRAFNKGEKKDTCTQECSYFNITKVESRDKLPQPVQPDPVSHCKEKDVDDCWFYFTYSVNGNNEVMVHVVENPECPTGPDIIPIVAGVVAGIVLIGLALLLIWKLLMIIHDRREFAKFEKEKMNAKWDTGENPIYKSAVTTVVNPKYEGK
Description: The wells of 96-well plates (Immunolon) were coated, by incubation overnight at 4° C., with 5 ug/mL vitronectin, 2 ug/mL osteopontin, or fibronectin or 10 mg/mL BSA in PBS. The protein solution was flicked out and the wells were blocked with 10 mg/mL BSA (0.1 mL) for 1-2 hours at 37° C. Cells HT29, K562, or K562 transfected with αvβ3 (Blystone et al., 1994) were loaded with a fluorescent marker, 5-chloromethylfluorescein diacetate (Molecular Probes, Eugene, Oreg.) for 1 hour at 37° C., then incubated in fresh medium without the fluorescent marker for 1 hour. Cells were lifted with trypsin-EDTA and washed two times with Hank's balanced salt solution minus cations (Sigma) supplemented with 1 mM MgCl2 Cells (75,000 cells/well) were added to coated plates in triplicate and allowed to attach at 37° C. for 1 hour in the presence or absence of specific antibodies (5 ug/mL) or 10-fold dilutions of compounds of interest starting at 10 uM. Nonadherent cells were removed by gentle washing twice with PBS. The adherent cells were solubilized with 1% triton x-100 and detected using a fluorescence plate reader (DYNEX Technologies). The number of attached cells was calculated based upon standard curves for each cell line used in the experiment. Non-specific cell attachment (attachment to wells coated with BSA) was always less than 5%.

αvβ3 = target: T5, αvβ3 (Homo sapiens, UniProt P05106+P06756); experiment: Cell adhesion assay, K562-tr on osteopontin; type: cell-based
T5 construct: expressed in transfected cells; host or cells: K562
T5 sequence (P06756 31-889 limits assumed): as the sequence (P06756 31-889 limits assumed) above
T5 sequence (P06756 891-1048 partner limits assumed): as the sequence (P06756 891-1048 partner limits assumed) above
T5 sequence (P05106 27-788): as the sequence (P05106 27-788) above
Description: as §3

[3] = K562 transfected with αvβ3, adhesion to osteopontin, 1 hour, read-out: IC50 K562-tr Osteopontin (αvβ3)

## CO[C@@H]1[C@H](OC(=O)NC(=O)CCl)CC[C@]2(CO2)[C@H]1[C@@]1(C)O[C@@H]1CC=C(C)C [AGM-1470, chloroacetyl-(3R,4S,5S,6R)-5-methoxy-4-[(2R,3R)-2-methyl-3-(3-methyl-2-butenyl)oxiranyl]-1-oxaspiro[2.5]oct-6-yl ester carbamic acid, reference compound]
[1]
  Incidence of lung metastasis: 3/10
  Incidence of lymph node metastasis: 1/10

## N=C(N)NCCCNC(=O)c1ccc(C(=O)NC(CC(=O)O)c2ccccc2)s1 (stereo not shown) [Compound VIII, 3-{[5-(3-guanidino-propylcarbamoyl)-thiophene-2-carbonyl]-amino}-3-phenyl-propionic acid]
HT29
  IC50: > 10 µM
[2]
  % of inhibition at 33 μg/mesh in the presence of VEGF: 36%
GP IIb-IIIa (αIIbβ3); biotinylated-fibrinogen (10 nM) binding to immobilized αIIbβ3, read-out: IC50 αIIbβ3
  IC50: 5.9 µM
Placental αvβ3; biotinylated-fibrinogen (10 nM) binding to immobilized αvβ3, read-out: IC50 αvβ3
  IC50: 3.2 µM
HMVEC
  IC50: > 10 µM

## NCCNC(=O)c1ccc(C(=O)NC[C@H](NS(=O)(=O)c2ccccc2)C(=O)O)s1 [Compound X, (2S)2-Benzenesulfonylamino-3-[5-(2-amino-ethylcarbamoyl)-thiophen-2-carbonyl]-amino propionic acid trifluoroacetic acid salt]
αvβ5; HT29 cells, adhesion to vitronectin, 1 hour, read-out: IC50 HT29 Vitronectin (αvβ5)
  IC50: > 10 µM
α5β1
  IC50: > 10 µM
αvβ3; [3]
  IC50: > 10 µM

## N=C(N)NNC(=O)c1ccc(C(=O)NC[C@H](NS(=O)(=O)c2ccccc2)C(=O)O)s1.O=C(O)C(F)(F)F [Compound XIX, 2S-Benzenesulfonylamino-3-[(5-guanidino-aminocarbonyl-thiophene-2-carbonyl)-amino]-3-propionic acid trifluoroacetate]
α5β1
  IC50: > 10 µM
[2]
  % of inhibition at 33 μg/mesh in the presence of VEGF: 8%
αvβ3; [3]
  IC50: 1.3 µM

## NNC(=O)c1ccc(C(=O)NC[C@H](NS(=O)(=O)c2ccccc2)C(=O)O)s1.O=C(O)C(F)(F)F [Compound XVIII, 2S-Benzenesulfonylamino-3-[(5-hydrazinocarbonyl-thiophene-2-carbonyl)-amino]-3-propionic acid trifluoroacetate]
[2]
  % of inhibition at 33 μg/mesh in the presence of VEGF: 20%

## Cl.N=C(N)NCCNC(=O)c1ccc(C(=O)NC[C@H](NS(=O)(=O)c2ccccc2)C(=O)O)o1 [Compound XXI, hydrochloride]
HT29
  IC50: > 10 µM
αvβ5
  IC50: 5.4 µM
α5β1
  IC50: > 10 µM
GP IIb-IIIa (αIIbβ3)
  IC50: 0.931 µM
αvβ3
  IC50: 2.3 µM
Placental αvβ3
  IC50: 0.045 µM
HMVEC
  IC50: 8.9 µM

## Cl.N=C(N)NCCNC(=O)c1ccc(C(=O)NC[C@H](NS(=O)(=O)c2ccccc2)C(=O)O)o1 [Compound XXI]
[2]
  % of inhibition at 33 μg/mesh in the presence of VEGF: 32%
